Literature values, collected in patent US20080014152A1, “INTRANASAL DELIVERY OF C[…] THE […] AND INTO THE BRAIN” (priority 2006, published 2008).

How the values were obtained:
astrocytes = details: Abdulla 2005; astrocytes treated with LPS
β2 adrenergic receptors = biological target: T1, β2 adrenergic receptors (Rattus norvegicus, UniProt P10608); details: Colangelo 1998; stimulation of β2 adrenergic receptors
T1 construct: host or cells: rat cerebral cortex (in vivo)

[1] = McIntyre 2005; infusions into the amygdala
[2] = Culmsee 2004
[3] = Culmsee 1999
NGF protein = details: Zhu 1998; intraperitoneal
hippocampal cultures = details: Semkova 1996; in vitro exposure of hippocampal cultures
U937 cell = details: Izeboud 1999; U937 cells stimulated with LPS
hippocampal cells = details: Zhu 2001
[4] = Rami 2003; after transient global ischemia
NGF mRNA = details: Follesa 1993; 10 mg/kg intraperitoneal, within 5 hours of administration
[5] = Sleeper 2002; chronic systemic administration

T1 sequence (P10608 whole entry): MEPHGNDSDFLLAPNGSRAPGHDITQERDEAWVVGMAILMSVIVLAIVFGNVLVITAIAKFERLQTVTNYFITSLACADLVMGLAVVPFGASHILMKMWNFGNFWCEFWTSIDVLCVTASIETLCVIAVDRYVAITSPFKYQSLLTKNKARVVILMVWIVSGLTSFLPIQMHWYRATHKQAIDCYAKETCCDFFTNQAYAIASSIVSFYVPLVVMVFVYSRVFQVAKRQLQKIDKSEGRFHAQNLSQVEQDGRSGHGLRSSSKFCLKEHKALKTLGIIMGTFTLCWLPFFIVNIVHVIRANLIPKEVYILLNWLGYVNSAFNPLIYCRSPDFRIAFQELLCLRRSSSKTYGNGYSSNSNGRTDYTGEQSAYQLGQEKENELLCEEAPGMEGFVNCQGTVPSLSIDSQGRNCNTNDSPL

For `CC(C)(C)NCC(O)c1cc(Cl)c(N)c(Cl)c1` (stereo not drawn) [clenbuterol], the “protection from inflammation in astrocytes” value (astrocytes) is listed as “provides protection from inflammation”, the “increase in bFGF mRNA in the cerebral cortex, hippocampus and cerebellum” value (bFGF mRNA; Follesa 1993, 10 mg/kg intraperitoneal, within 5 hours of administration) is listed as 2-3 fold and the “induction of bFGF production in neurons” value (bFGF mRNA; in vivo) is listed as 2-3 ×. The “NGF biosynthesis in the rat cerebral cortex” value (β2 adrenergic receptors) was “increases NGF biosynthesis”, the memory [1] was “enhance memory” and the “neuroprotective capacity in experimental models of stroke” value [2] was “neuroprotective capacity”. The cortical infarct volume ([3]; 0.01-0.5 mg/kg, rats, measured 7 days after permanent occlusion of the middle cerebral artery) was “reduced cortical infarct volume”, the blood pressure ([3]; dosages greater than 1 mg/kg) was “decrease in blood pressure” and the cerebroprotective effect ([3]; dosages greater than 1 mg/kg) was “no cerebroprotective effect”. The plasma glucose level ([3]; dosages greater than 1 mg/kg) was “increase in plasma glucose level”, the “elevation of NGF protein levels in the rat hippocampus” value (NGF protein) was 33% and the “NGF content in the culture medium” value (hippocampal cultures) was “enhanced significantly”. The IL-6 production (U937 cell) was “decreasing”, the IL-10 production (U937 cell) was “increase IL-10 production” and the TNF-α production (U937 cell) was “decreasing”. The “neuroprotection of hippocampal cells after ischemia” value (hippocampal cells) was “provided neuroprotection”, the “apoptosis in the rat hippocampus” value [4] was “attenuates apoptosis” and the “increase in NGF mRNA in the cerebral cortex” value (NGF mRNA) was 2-3 fold. For the same compound, the TGF-β immunoreactivity (TGF-β; Zhu 2001, 0.5 mg/kg, as early as 3 hours after administration, elevated up to 2 days) was “increase TGF-β immunoreactivity”, the “induction of TGF-β production in neurons” value (TGF-β; in vivo) was 2-3 × and the “side effects, cardiac function” value [5] was “negative alteration of cardiac function”.
